From publication PMC6934184, “Selective DNA-PKcs inhibition extends the therapeutic index of localized radiotherapy and chemotherapy” (The Journal of Clinical Investigation, 2019)

Molecular target: T1, TNIK (Homo sapiens, UniProt Q9UKE5)
T1 construct: purchased Thermo Fisher Scientific (Life Technologies) SelectScreen
Assay: SelectScreen LanthaScreen
Format: binding
Conditions: read-out: % displacement
Outline: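 SelectScreen broad panel; activity (Z'LYTE, Adapta) plus binding formats. ATP: Km app for CSF1R Z'LYTE; 10 for CAMK1 Adapta. Readout = % per kinase.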

T1 sequence (Q9UKE5 whole entry): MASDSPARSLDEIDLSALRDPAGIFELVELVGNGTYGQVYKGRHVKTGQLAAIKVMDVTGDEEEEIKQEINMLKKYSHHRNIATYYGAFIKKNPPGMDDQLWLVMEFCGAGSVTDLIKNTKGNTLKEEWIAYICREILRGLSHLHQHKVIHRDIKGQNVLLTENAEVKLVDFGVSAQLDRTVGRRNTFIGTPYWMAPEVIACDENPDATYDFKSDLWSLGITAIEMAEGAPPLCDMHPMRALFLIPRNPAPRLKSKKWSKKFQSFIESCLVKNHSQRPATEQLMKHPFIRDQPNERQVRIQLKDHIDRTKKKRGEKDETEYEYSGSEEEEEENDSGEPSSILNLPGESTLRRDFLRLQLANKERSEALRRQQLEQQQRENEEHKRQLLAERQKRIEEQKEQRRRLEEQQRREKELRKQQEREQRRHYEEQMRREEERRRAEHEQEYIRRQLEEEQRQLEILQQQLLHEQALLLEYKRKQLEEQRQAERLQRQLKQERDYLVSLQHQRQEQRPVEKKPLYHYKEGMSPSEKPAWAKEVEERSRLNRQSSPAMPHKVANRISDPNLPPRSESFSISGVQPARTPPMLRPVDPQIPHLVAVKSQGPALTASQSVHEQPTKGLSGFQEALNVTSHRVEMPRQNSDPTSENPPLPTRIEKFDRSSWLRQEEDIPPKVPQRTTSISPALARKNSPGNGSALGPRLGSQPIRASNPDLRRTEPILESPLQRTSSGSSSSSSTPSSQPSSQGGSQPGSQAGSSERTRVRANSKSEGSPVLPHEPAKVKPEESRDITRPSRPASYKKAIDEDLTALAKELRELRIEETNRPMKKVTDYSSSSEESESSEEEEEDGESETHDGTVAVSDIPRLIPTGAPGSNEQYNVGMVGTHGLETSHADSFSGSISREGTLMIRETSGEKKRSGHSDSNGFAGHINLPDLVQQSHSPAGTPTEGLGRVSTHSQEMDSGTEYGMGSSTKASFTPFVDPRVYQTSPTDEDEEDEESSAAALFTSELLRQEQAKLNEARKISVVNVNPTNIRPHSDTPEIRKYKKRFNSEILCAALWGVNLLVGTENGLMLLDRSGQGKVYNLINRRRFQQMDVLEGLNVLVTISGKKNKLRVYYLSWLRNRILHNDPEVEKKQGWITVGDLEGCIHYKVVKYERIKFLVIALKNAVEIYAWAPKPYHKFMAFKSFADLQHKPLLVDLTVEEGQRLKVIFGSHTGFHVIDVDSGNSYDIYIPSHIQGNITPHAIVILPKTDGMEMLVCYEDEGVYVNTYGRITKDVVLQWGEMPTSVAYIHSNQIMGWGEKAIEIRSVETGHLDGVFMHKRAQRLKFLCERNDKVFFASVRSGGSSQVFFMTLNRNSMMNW

CN(C(=O)CN1CCOCC1)c1ccc2sc3c(-c4cccc5c(=O)cc(N6CC7CCC(C6)O7)oc45)cccc3c2c1 [NU5455]
inhibition at 1 µM: 7.3%
